{"source": "patent US20150292026A1", "about": "“METHYLATION MARKERS PREDICTIVE FOR DRUG RESPONSE” (MDxHEALTH SA, priority 2012, published 2015)", "key": {"[1]": {"system": "patients with metastatic CRC", "details": "first-line therapy, discovery set; for HR (methylated vs unmethylated): PFS"}, "HCT116 cells": {"system": "HCT116 cells", "experiment": "Re-expression of DCR1 (qRT-PCR) in HCT116 after inhibition of DNA methyltransferases", "assay_type": "cell-based, Human", "details": "HCT116 (65% methylated for DCR1), 5000 nM for 3 days, p=0.005", "procedure": "To investigate re-expression of DCR1 after inhibition of DNA metyltransferases, HCT116 cells were treated with 5000 nM 5-aza-2′-deoxycytidine for 3 days (DAC, Sigma Chemical Co., St. Louis. Mo., USA).\nTotal RNA was isolated using TriZoI reagent (Invitrogen, Breda, The Netherlands), and subjected to purification using RNeasy Mini Kit (Qiagen). After DNAse treatment (RQI DNAse, Promega, Leiden, The Netherlands). cDNA was made with the Iscript cDNA Synthesis Kit (BioRad, Veenendaal, The Netherlands). Quantitative RT-PCR was done using TaqMan® Gene Expression Assays from Applied Biosystems directed to DCR1 (Hs00182570_m1) and B2M (Hs00984230_m1). Relative expression levels were determined by calculating the Ct-ratio (Ct ratio=2̂−(Ct DCR1−Ct B2M)).\nStudent's T-test was used for comparison of DCR1 expression levels before and after DAC and TSA treatment of HCT116."}, "[2]": {"system": "patients with CRC (CAIROII)", "details": "CAIRO II patients, estimate from literature; cited from earlier work"}, "[3]": {"system": "patients with metastatic CRC", "experiment": "CAIRO arm A: response to single agent irinotecan in second line by DCR1 methylation", "assay_type": "in vivo, human", "details": "65 patients from arm A, data not shown"}}, "note": "Like-named read-outs stand apart in the source and are kept apart here.", "data": [{"compound": "CCCCCOC(=O)Nc1nc(=O)n([C@@H]2O[C@H](C)[C@@H](O)[C@H]2O)cc1F", "note": "[Capecitabine]", "values": [{"measurement": "HR (methylated vs unmethylated)", "setting": "[1]; BK methylation", "result": 1.1}, {"measurement": "HR (methylated vs unmethylated)", "setting": "[1]; CAT methylation", "result": 0.9}, {"measurement": "HR (methylated vs unmethylated)", "setting": "[1]; CCND2 methylation", "result": 1.3}, {"measurement": "HR (methylated vs unmethylated)", "setting": "[1]; CDK5 methylation", "result": 0.7}, {"measurement": "HR (methylated vs unmethylated)", "setting": "[1]; DAPK1 methylation", "result": 1.0}, {"measurement": "HR (methylated vs unmethylated)", "setting": "[1]; DCR1 methylation", "result": 1.4}, {"measurement": "HR (methylated vs unmethylated)", "setting": "[1]; EEF1A2 (1 assay methylation)", "result": 1.2}, {"measurement": "HR (methylated vs unmethylated)", "setting": "[1]; EEF1A2 (2 assay methylation)", "result": 1.3}, {"measurement": "HR (methylated vs unmethylated)", "setting": "[1]; HOXA9 methylation", "result": 0.8}, {"measurement": "HR (methylated vs unmethylated)", "setting": "[1]; IRAK1 methylation", "result": 1.6}, {"measurement": "HR (methylated vs unmethylated)", "setting": "[1]; LIG4 methylation", "result": 1.2}, {"measurement": "HR (methylated vs unmethylated)", "setting": "[1]; NUDT1 methylation", "result": 1.5}, {"measurement": "HR (methylated vs unmethylated)", "setting": "[1]; PAX3 (1) assay methylation", "result": 1.2}, {"measurement": "HR (methylated vs unmethylated)", "setting": "[1]; PAX3 (2) assay methylation", "result": 1.3}, {"measurement": "HR (methylated vs unmethylated)", "setting": "[1]; PRKCB1 methylation", "result": 1.1}, {"measurement": "HR (methylated vs unmethylated)", "setting": "[1]; PROK2 methylation", "result": 0.8}, {"measurement": "HR (methylated vs unmethylated)", "setting": "[1]; PROP1 methylation", "result": 2.0}, {"measurement": "HR (methylated vs unmethylated)", "setting": "[1]; PTGS2 methylation", "result": 1.1}, {"measurement": "HR (methylated vs unmethylated)", "setting": "[1]; RASSF1 methylation", "result": 1.2}, {"measurement": "HR (methylated vs unmethylated)", "setting": "[1]; RBBP8 methylation", "result": 0.9}, {"measurement": "HR (methylated vs unmethylated)", "setting": "[1]; RHOB methylation", "result": 0.7}, {"measurement": "HR (methylated vs unmethylated)", "setting": "[1]; SPO11 methylation", "result": 1.4}, {"measurement": "HR (methylated vs unmethylated)", "setting": "[1]; TBX5 methylation", "result": 2.3}, {"measurement": "HR (methylated vs unmethylated)", "setting": "[1]; TIPARP methylation", "result": 0.9}, {"measurement": "Median PFS", "setting": "[1]; BK methylated (M) tumours", "result": 149, "unit": "days"}, {"measurement": "Median PFS", "setting": "[1]; BK unmethylated (U) tumours", "result": 188, "unit": "days"}, {"measurement": "Median PFS", "setting": "[1]; CAT methylated (M) tumours", "result": 116, "unit": "days"}, {"measurement": "Median PFS", "setting": "[1]; CAT unmethylated (U) tumours", "result": 190, "unit": "days"}, {"measurement": "Median PFS", "setting": "[1]; CCND2 methylated (M) tumours", "result": 202, "unit": "days"}, {"measurement": "Median PFS", "setting": "[1]; CCND2 unmethylated (U) tumours", "result": 156, "unit": "days"}, {"measurement": "Median PFS", "setting": "[1]; CDK5 methylated (M) tumours", "result": 125, "unit": "days"}, {"measurement": "Median PFS", "setting": "[1]; CDK5 unmethylated (U) tumours", "result": 191, "unit": "days"}, {"measurement": "Median PFS", "setting": "[1]; DAPK1 methylated (M) tumours", "result": 144, "unit": "days"}, {"measurement": "Median PFS", "setting": "[1]; DAPK1 unmethylated (U) tumours", "result": 188, "unit": "days"}, {"measurement": "Median PFS", "setting": "[1]; DCR1 methylated (M) tumours", "result": 184, "unit": "days"}, {"measurement": "Median PFS", "setting": "[1]; DCR1 unmethylated (U) tumours", "result": 178, "unit": "days"}, {"measurement": "Median PFS", "setting": "[1]; EEF1A2 (1 assay methylated (M) tumours)", "result": 202, "unit": "days"}, {"measurement": "Median PFS", "setting": "[1]; EEF1A2 (1 assay unmethylated (U) tumours)", "result": 168, "unit": "days"}, {"measurement": "Median PFS", "setting": "[1]; EEF1A2 (2 assay methylated (M) tumours)", "result": 246, "unit": "days"}, {"measurement": "Median PFS", "setting": "[1]; EEF1A2 (2 assay unmethylated (U) tumours)", "result": 177, "unit": "days"}, {"measurement": "Median PFS", "setting": "[1]; HOXA9 methylated (M) tumours", "result": 168, "unit": "days"}, {"measurement": "Median PFS", "setting": "[1]; HOXA9 unmethylated (U) tumours", "result": 191, "unit": "days"}, {"measurement": "Median PFS", "setting": "[1]; IRAK1 methylated (M) tumours", "result": 216, "unit": "days"}, {"measurement": "Median PFS", "setting": "[1]; IRAK1 unmethylated (U) tumours", "result": 130, "unit": "days"}, {"measurement": "Median PFS", "setting": "[1]; LIG4 methylated (M) tumours", "result": 173, "unit": "days"}, {"measurement": "Median PFS", "setting": "[1]; LIG4 unmethylated (U) tumours", "result": 190, "unit": "days"}, {"measurement": "Median PFS", "setting": "[1]; NUDT1 methylated (M) tumours", "result": 187, "unit": "days"}, {"measurement": "Median PFS", "setting": "[1]; NUDT1 unmethylated (U) tumours", "result": 99, "unit": "days"}, {"measurement": "Median PFS", "setting": "[1]; PAX3 (1) assay methylated (M) tumours", "result": 189, "unit": "days"}, {"measurement": "Median PFS", "setting": "[1]; PAX3 (1) assay unmethylated (U) tumours", "result": 126, "unit": "days"}, {"measurement": "Median PFS", "setting": "[1]; PAX3 (2) assay methylated (M) tumours", "result": 187, "unit": "days"}, {"measurement": "Median PFS", "setting": "[1]; PAX3 (2) assay unmethylated (U) tumours", "result": 127, "unit": "days"}, {"measurement": "Median PFS", "setting": "[1]; PRKCB1 methylated (M) tumours", "result": 192, "unit": "days"}, {"measurement": "Median PFS", "setting": "[1]; PRKCB1 unmethylated (U) tumours", "result": 168, "unit": "days"}, {"measurement": "Median PFS", "setting": "[1]; PROK2 methylated (M) tumours", "result": 182, "unit": "days"}, {"measurement": "Median PFS", "setting": "[1]; PROK2 unmethylated (U) tumours", "result": 179, "unit": "days"}, {"measurement": "Median PFS", "setting": "[1]; PROP1 methylated (M) tumours", "result": 188, "unit": "days"}, {"measurement": "Median PFS", "setting": "[1]; PROP1 unmethylated (U) tumours", "result": 99, "unit": "days"}, {"measurement": "Median PFS", "setting": "[1]; PTGS2 methylated (M) tumours", "result": 202, "unit": "days"}, {"measurement": "Median PFS", "setting": "[1]; PTGS2 unmethylated (U) tumours", "result": 168, "unit": "days"}, {"measurement": "Median PFS", "setting": "[1]; RASSF1 methylated (M) tumours", "result": 209, "unit": "days"}, {"measurement": "Median PFS", "setting": "[1]; RASSF1 unmethylated (U) tumours", "result": 164, "unit": "days"}, {"measurement": "Median PFS", "setting": "[1]; RBBP8 methylated (M) tumours", "result": 191, "unit": "days"}, {"measurement": "Median PFS", "setting": "[1]; RBBP8 unmethylated (U) tumours", "result": 177, "unit": "days"}, {"measurement": "Median PFS", "setting": "[1]; RHOB methylated (M) tumours", "result": 112, "unit": "days"}, {"measurement": "Median PFS", "setting": "[1]; RHOB unmethylated (U) tumours", "result": 188, "unit": "days"}, {"measurement": "Median PFS", "setting": "[1]; SPO11 methylated (M) tumours", "result": 177, "unit": "days"}, {"measurement": "Median PFS", "setting": "[1]; SPO11 unmethylated (U) tumours", "result": 190, "unit": "days"}, {"measurement": "Median PFS", "setting": "[1]; TBX5 methylated (M) tumours", "result": 188, "unit": "days"}, {"measurement": "Median PFS", "setting": "[1]; TBX5 unmethylated (U) tumours", "result": 65, "unit": "days"}, {"measurement": "Median PFS", "setting": "[1]; TIPARP methylated (M) tumours", "result": 177, "unit": "days"}, {"measurement": "Median PFS", "setting": "[1]; TIPARP unmethylated (U) tumours", "result": 187, "unit": "days"}]}, {"compound": "Nc1ncn([C@H]2C[C@H](O)[C@@H](CO)O2)c(=O)n1", "note": "[5-aza-2′-deoxycytidine]", "values": [{"measurement": "DCR1 expression (qRT-PCR) after treatment", "setting": "HCT116 cells", "result": "significant increased DCR1 expression"}]}, {"compound": "bevacuzimab: targeted therapy directed against VEGF", "values": [{"measurement": "survival benefit from bevacizumab", "setting": "[2]", "result": "about two"}]}, {"compound": "CCc1c2c(nc3ccc(OC(=O)N4CCC(N5CCCCC5)CC4)cc13)-c1cc3c(c(=O)n1C2)COC(=O)[C@]3(O)CC", "note": "[irinotecan, Irinotecan]", "values": [{"measurement": "association of DCR1 methylation with response to single agent second-line therapy", "setting": "[3]", "result": "a similar trend was observed, although not statistically significant"}]}]}
